How the values were obtained:
[1] = test system: immobility of female NMRI mice; experiment: Tail suspension test; assay type: in vivo; conditions: 30 min before test, 6 min suspension
Protocol: 1-(4-methoxyphenyl)-indole has been studied in the socalled tail suspension test as described by L. Steru et al., Prog. Neuro-Psychopharmacol. Biol. Psychiatry 11, 659-671 (1987). Female NMRI mice (20-25 g, 10 mice per dose) were suspended by the tail with adhesive tape for 6 min. The mice alternated between phases of activity (trying to escape) and immobility (despair). The duration of immobility was recorded manually. Saline, 1-(4-methoxyphenyl)-indole or desipramine were administered i.p. 30 min before the start of the test.

BKCa channel [2] = experiment: Single channel patch-clamp, inside-out patches of bovine aortic smooth muscle cells; assay type: cell-based; conditions: 20 μM
Protocol: (§1) All electrophysiological experiments were performed with patch-clamp technique (Hamill et al., Pflugers Arch. 391, 85-100 (1981). The ion composition of the internal solution was (in mM) 4 NaCl, 140 KCl, 1 CaCl2, 1 MgCl2, 2 EGTA, 10 HEPES and the external solution contained 140 NaCl, 4 Kcl, 2 CaCl2, 1 MgCl2 and 10 HEPES.

BKCa channel [3] = experiment: Single channel patch-clamp in pancreatic β-cells; assay type: cell-based
Protocol: as §1

[4] = test system: social recognition memory of adult male Wistar rats; experiment: Social recognition model; assay type: in vivo, rat
Protocol: In short, adult male Wistar rats (350 g) were housed individually in normal transparent plexiglas cages. After a habituation period of at least 24 hours a juvenile male Wistar rat (25-30 days old) was introduced in the cage in a 5 min period (first exposure). A second exposure of the same juvenile rat for another 5 min period was performed either 5 min later or 120 min later. In one case, another juvenile rat was introduced 120 min after an exposure of a juvenile rat. The adult rat was administered either saline or different doses of 1-(4-methoxyphenyl)-indole i.p. 15 min before the first exposure of the juvenile rat.
In both sessions (1st and 2nd exposure period) the total duration of investigatory behaviour consisting of sniffing, nosing and grooming performed by the adult rat was noted.
The adult rat (n=10-20) used generally 100-110 sec investigating the juvenile rat on the first exposure. […] The memory seems basically to be based on recognition of urine odour.

Row | Structure (SMILES) | duration of immobility ([1]; doses between 10 and 100 mg/kg i.p.) | block of the BKCa channel (BKCa channel [2]) | block of the BKCa channel (BKCa channel [3]) | investigatory behaviour on the second exposure with a new (unknown) juvenile rat ([4]; 30 mg/kg i.p. 15 min before first exposure, new juvenile rat) | investigatory behaviour on the first exposure ([4]; 7.5-30 mg/kg i.p. 15 min before first exposure) | investigatory behaviour on the second exposure of the same juvenile rat ([4]; 7.5-30 mg/kg i.p., second exposure 120 min later, same juvenile rat) | duration of immobility ([1]; doses between 1 and 30 mg/kg i.p.)
1 | COc1ccc(-n2ccc3ccccc32)cc1 [1-(4-methoxyphenyl)-indole] | inhibited the immobility dose-dependently | potently at 20 μM blocked the BKCa channel | potently blocked the BKCa channel | normal investigatory behaviour was seen | did not interfere with the adult rats investigatory behaviour | significant decrease in investigatory behaviour | 
2 | CNCCCN1c2ccccc2CCc2ccccc21 [Desipramine, reference compound] |  |  |  |  |  |  | reduced the immobility dose-dependently
